Reference: PubChem BioAssay AID2791 (The Scripps Research Institute Molecular Screening Center, 2010)
Calls of active or inactive are those of the source.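 Rule for the calls: active = blockers of MCL1 binding to BIM peptide with IC50 at or below 10 micromolar; inactive = IC50 above 10 micromolar.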

Biological target: Induced myeloid leukemia cell differentiation protein Mcl-1 (Homo sapiens) (UniProt Q07820)
Test: blockers of MCL1–BIM BH3 interaction – biochemical, fluorescence polarization, GST-MCL1, FITC-BIM-BH3, powder samples, dose response (AID 2791)

Sequence of Induced myeloid leukemia cell differentiation protein Mcl-1 (Homo sapiens) (Q07820 whole entry, looked up): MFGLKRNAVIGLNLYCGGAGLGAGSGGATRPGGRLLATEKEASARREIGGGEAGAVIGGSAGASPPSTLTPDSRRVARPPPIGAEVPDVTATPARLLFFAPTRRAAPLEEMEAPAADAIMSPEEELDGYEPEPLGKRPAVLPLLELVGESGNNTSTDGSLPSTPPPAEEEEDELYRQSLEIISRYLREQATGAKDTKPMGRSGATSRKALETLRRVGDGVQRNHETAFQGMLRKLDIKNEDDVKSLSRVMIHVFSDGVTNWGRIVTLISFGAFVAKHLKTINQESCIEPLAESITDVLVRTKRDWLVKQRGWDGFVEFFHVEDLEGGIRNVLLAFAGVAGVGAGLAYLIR

Row | Structure (SMILES) | IC50
1 | COc1ccc(-n2cccc2/C=C2\C(=N)N3N=C(c4ccco4)SC3=NC2=O)cc1 | 1.45 µM
2 | CCc1sc(C(C2C(=O)CC(C)(C)CC2=O)C2C(=O)CC(C)(C)CC2=O)cc1[N+](=O)[O-] | inactive
3 | COc1ccc(NC(=O)CN(C)C(=O)c2cc3c(s2)CCC3)cc1 | inactive
4 | CCOc1ccc(NC(=O)c2cccc(-n3cccc3)c2)cc1S(=O)(=O)N1CCOCC1 | > 109 µM (inactive)
5 | O=C(NN=Cc1cccc(F)c1)c1cc(-c2ccco2)nc2ccccc12 | 6.88 µM

More lines, now with the values ahead:

Row | IC50 | Structure (SMILES)
6 | > 109 µM (inactive) | O=C1COc2ccc(C(=O)COC(=O)/C=C/c3ccc(Br)o3)cc2N1
7 | > 109 µM (inactive) | O=C(NN=Cc1ccc(-c2ccc(S(=O)(=O)Nc3ncccn3)cc2)o1)c1cc2ccccc2cc1O
8 | inactive | Cc1cccc(NC(=O)CNC(=O)c2cccc(-n3cccc3)c2)c1C
9 | 7.34 µM | COc1ccc(Cc2nnc(NC(=O)Cc3cccs3)s2)cc1OC
10 | 5.84 µM | Nc1ccc(C(=O)NN=Cc2cc(N=Nc3cccc4ccccc34)ccc2O)cc1
11 | 4.09 µM | C=CCn1c(SCC(=O)c2ccc(O)c(O)c2)nnc1-c1cccnc1
12 | 5.01 µM | COC(=O)c1ccccc1NCc1cc(=O)oc2cc(O)c(O)cc12
13 | 0.844 µM | C=CCN=c1scc(-c2ccco2)n1/N=C/c1ccc(O)c(O)c1O
